The test system of series [1] is L. donovani strain MHOM/ET/67/L82 axenic amastigotes. Nature of the series: Activity against Leishmania donovani axenic amastigotes (resazurin). The conditions noted are these: for Selectivity index (SI): IC50 in L6 cells divided by IC50 in L. donovani axenic amastigotes: L6 cells vs axenic L. donovani; for IC50: Leishmania donovani, mean ± absolute deviation, at least two replicates. The series is classed as cell-based. The procedure:
Amastigotes of L. donovani strain MHOM/ET/67/L82 were grown under an atmosphere of 5% CO2 in air in axenic culture at 37°C in SM medium ([Cunningham, 1977]) at pH 5.4 supplemented with 10% heat-inactivated fetal bovine serum. 50 µL of culture medium was added in the wells of a 96-well plate and serial drug dilutions of eleven three-fold dilution steps covering a final range from 100 to 0.002 μg/ml were prepared. 50 µL culture medium with 2 × 10^5 amastigotes from axenic culture were added to each well. After 70 h of incubation the plates were inspected under an inverted microscope to assure growth of the controls and sterile conditions. 10 μl of resazurin (12.5 mg resazurin dissolved in 100 ml distilled water) were added to each well and the plates incubated for another 2 h. Then the plates were read with a Spectramax Gemini XS microplate fluorometer (Molecular Devices Cooperation, Sunnyvale, CA, USA) using an excitation wavelength of 536 nm and an emission wavelength of 588 nm. Data were analyzed using the software Softmax Pro (Molecular Devices Cooperation, Sunnyvale, CA, USA). Decrease of fluorescence (= inhibition) was expressed as percentage of the fluorescence of untreated control cultures and plotted against the drug concentrations. From the sigmoidal inhibition curves the IC50 values were calculated. Miltefosine was used as positive control drug. Assays were performed in two independent replicates at least.
Background: Resazurin is reduced to fluorescent resorufin, in cell work by metabolically active cells.

Series [2] has as its system L. donovani amastigotes in mouse peritoneal macrophages. Nature of the series: Activity against Leishmania donovani intramacrophage amastigotes (high-content imaging). The conditions noted are these: Leishmania donovani, Peritoneal macrophage, 96 h, read-out: IC50 L. donovani Intramacrophage. The series is classed as cell-based. The procedure: (§1) Macrophages were isolated from the mouse (CDI) peritoneal cavity ([Zhang et al., 2008]) using 2% starch solution as eliciting agent injected 2 day prior to cell harvest. Animal work was carried out according to the rules and regulations for the protection of animal rights (“Tierschutzverordnung”) of the Swiss “Bundesamt für Veterinärwesen” (License number 2374). Mouse peritoneal macrophages (4 × 10^4 in 100 µL RPMI 1640 medium with 10% heat-inactivated FBS) were seeded into wells of a 96-well plate. After 24 h, 2 × 10^5 amastigote L. donovani in 100 µL were added. The amastigotes were taken from an axenic amastigote culture grown at pH 5.4. The medium containing free amastigote forms was removed after 24 h and replaced with fresh medium. The washing step was repeated and afterward the serial drug dilution was prepared with at least 6 dilution steps. Compounds were dissolved in DMSO at 10 mg/ml and further diluted in medium. After 96 h of incubation at 37°C under a 5% CO2 atmosphere, the medium was removed, and cells were fixed by adding 50 µl 4% formaldehyde solution followed by a staining with a 5 µM DRAQ5 solution. Plates were imaged in ImageXpress XLS (MD) microscope using a 20× air objective (635 nm excitation: 690/50 emission). 9 images were collected per well. Automated image analysis was performed with a script developed on Meta Xpress Software (MD). Three outputs were provided for each well: i) number of host cell nuclei; ii) numbers of infected and non-infected host cells; iii) number of parasite nuclei per infected host cell. The IC50 values were calculated based on the infection rate and the numbers of intracellular amastigotes. The cytotoxicity to macrophages was determined in parallel, and IC50 values were calculated based on the numbers of surviving, uninfected macrophages. Miltefosine was used as control. Assays were performed in two independent replicates at least.

The subject of series [3] is T. b. rhodesiense STIB 900 bloodstream forms. Nature of the series: Activity against Trypanosoma brucei rhodesiense STIB900 (resazurin). The conditions noted are these: for Selectivity index (SI): IC50 in L6 cells divided by IC50 in T. b. rhodesiense: L6 cells vs T. b. rhodesiense STIB 900; for IC50: Trypanosoma brucei, 70 h, STIB 900 bloodstream forms, 70 h + resazurin, mean ± absolute deviation. Type of series: cell-based. The procedure: The stock was originally isolated from a patient and adapted to axenic culture conditions after several mouse passages and cloned. Minimum Essential Medium (50 µl) supplemented with 25 mM HEPES, 1 g/L additional glucose, 1% MEM non-essential amino acids (100×), 0.2 mM 2-mercaptoethanol, 1 mM Na-pyruvate ([Baltz et al., 1985]) and 15% heat inactivated horse serum was added to each well of a 96-well microtiter plate. Serial drug dilutions of eleven 3-fold dilution steps covering a range from 100 to 0.002 μg/ml were prepared. Then 4 × 10^3 bloodstream forms of T. b. rhodesiense STIB 900 in 50 µL were added to each well and the plate incubated for 70 h at 37°C and under a 5% CO2 atmosphere. 10 µL resazurin solution (resazurin, 12.5 mg in 100 ml double-distilled water) was then added to each well and incubation continued for a further 2–4 h ([Räz et al., 1997]). Plates were read with a Spectramax Gemini XS microplate fluorometer (Molecular Devices Cooperation, Sunnyvale, CA, USA) using an excitation wavelength of 536 nm and an emission wavelength of 588 nm. […] Melarsoprol (Arsobal Sanofi-Aventis, received from WHO) was used as control. Assays were performed in two independent replicates at least.

Series [4] relates to P. falciparum NF54 erythrocytic stages. Nature of the series: Activity against Plasmodium falciparum (3H-hypoxanthine incorporation). Type of series: cell-based. The conditions noted are these: for Selectivity index (SI): IC50 in L6 cells divided by IC50 in P. falciparum: L6 cells vs P. falciparum NF54. The procedure: In vitro activity against the erythrocytic stages of P. falciparum was determined using a ^3H-hypoxanthine incorporation assay ([Desjardins et al., 1979]), using the drug sensitive NF54 strain ([Ponnudurai et al., 1981]). Compounds were dissolved in DMSO at 10 mg/ml and further diluted in medium before addition to parasite cultures incubated in RPMI 1640 medium without hypoxanthine, supplemented with HEPES (5.94 g/L), NaHCO3 (2.1 g/L), neomycin (100 U/ml), Albumax^R (5 g/L), and washed human red cells A^+ at 2.5% haematocrit (0.3% parasitemia). Serial drug dilutions of 11 three-fold dilution steps covering a range from 100 to 0.002 μg/ml were prepared. The 96-well plates were incubated in a humidified atmosphere at 37°C; 4% CO2, 3% O2, 93% N2. After 48 h, 50 μl of ^3H-hypoxanthine (=0.5 μCi) was added to each well of the plate. The plates were incubated for a further 24 h under the same conditions. The plates were then harvested with a Betaplate™ cell harvester (Wallac, Zurich, Switzerland), the red blood cells transferred onto a glass fibre filter, and lysed with distilled water. The dried filters were inserted into a plastic foil with 10 ml of scintillation fluid and counted in a Betaplate™ liquid scintillation counter (Wallac, Zurich, Switzerland). IC50 values were calculated from sigmoidal inhibition curves by linear regression using Microsoft Excel. Chloroquine (Sigma C6628) was used as control. Assays were performed in two independent replicates at least.

The nature of series [5]: In vitro cytotoxicity with L-6 cells (resazurin). Type of series: cell-based, rat. The conditions noted are these: rat, L6 cells, 70 h + 2 h resazurin, mean ± absolute deviation. As for the experimental part: (§2) Assays were performed in 96-well microtiter plates, each well containing 100 µl of RPMI 1640 medium supplemented with 1% L-glutamine (200 mM) and 10% fetal bovine serum, and 4000 L-6 cells (a primary cell line derived from rat skeletal myoblasts) ([Ahmed et al., 1994]). Serial drug dilutions of 11 three-fold dilution steps covering a range from 100 to 0.002 μg/ml were prepared 24 h post seeding L-6 cells. The plates were incubated for 70 h and inspected under an inverted microscope to assure growth of the controls and sterile conditions. 10 µl of resazurin was then added to each well and the plates incubated for another 2 h. Then the plates were read with a Spectramax Gemini XS microplate fluorometer (Molecular Devices Cooperation, Sunnyvale, CA, USA) using an excitation wavelength of 536 nm and an emission wavelength of 588 nm. The IC50 values were calculated by linear regression and four-parameter logistic regression from the sigmoidal dose inhibition curves using SoftmaxPro software (Molecular Devices Cooperation, Sunnyvale, CA, USA). Podophyllotoxin (Sigma P4405) was used as positive control. All assays were performed in two independent replicates at least. Activities of all compounds were expressed in µM using the formula: […]

A short description of series [6]: Cytotoxicity to macrophages determined in parallel to the intramacrophage assay. The series is classed as cell-based. The conditions noted are these: CDI, surviving, uninfected mouse peritoneal macrophages. The procedure: as §1
In series [7] the test system is L-6 cells (rat skeletal myoblasts). The experiment in a line: In vitro cytotoxicity with L-6 cells (resazurin). The conditions noted are these: 70 h + 2 h resazurin, mean ± absolute deviation. Type of series: cell-based. The procedure:
as §2

Setting [8] is: pH 5.4, axenic amastigotes, MHOM/ET/67/L82, pH 5.4, 70 h + 2 h resazurin, read-out: IC50 L. donovani Axenic.
[9] abbreviates: amastigotes in mouse peritoneal macrophages.
[10] abbreviates: Plasmodium falciparum, NF54, 72 h, NF54 drug sensitive strain, erythrocytic stages, 72 h, mean ± absolute deviation, read-out: IC50 P. falciparum.
Setting [11] is: Plasmodium falciparum, NF54, 72 h, read-out: IC50 P. falciparum, NF54 drug sensitive strain, erythrocytic stages, 72 h, mean ± absolute deviation.

Read-outs that look alike come from different tables or passages of the source. Some results are limits rather than exact numbers.

As to `O=C1C[C@@H](c2ccc(O)cc2)Oc2cc(O)cc(O)c21` [Compound 4, Naringenin], the “Selectivity index (SI): IC50 in L6 cells divided by IC50 in L. donovani axenic amastigotes” value in series [1] is 5.6. For the same compound, the IC50 in series [1] (setting [8]) is 41.8 ± 9.3 µM; in series [2] (setting [9]), greater than 121 µM; in series [4] (setting [10]) it was 73.2 ± 5.9 µM. Moreover, in series [3], the “Selectivity index (SI): IC50 in L6 cells divided by IC50 in T. b. rhodesiense” value was 1.3. For the same compound, the “Selectivity index (SI): IC50 in L6 cells divided by IC50 in P. falciparum” value in series [4] is 3.2. Besides, the IC50 at 70 h in series [5] (L-6 cells (rat skeletal myoblasts)) stood at 233 ± 36.9 µM. In series [6], this compound showed an IC50 at 96 h of 333 ± 18.2 µM.

As to `COc1ccc(-c2oc3cc(O)cc(O)c3c(=O)c2OC)cc1O` [Compound 5, Quercetin-3,4′-dimethylether], the “Selectivity index (SI): IC50 in L6 cells divided by IC50 in L. donovani axenic amastigotes” value in series [1] was determined as 1.3. Further, the IC50 in series [1] (setting [8]) is 15 to 22 µM; in series [2] (setting [9]), greater than 33.3 µM; in series [3] it was 6.6 ± 3.2 µM; in series [4] (NF54 drug sensitive strain, erythrocytic stages, 72 h, mean ± absolute deviation, read-out: IC50 P. falciparum), 18.2 ± 6.7 µM; in series [4] (setting [10]), less than 20 µM. Further, in series [3], the “Selectivity index (SI): IC50 in L6 cells divided by IC50 in T. b. rhodesiense” value is recorded as 2.9. Moreover, the “Selectivity index (SI): IC50 in L6 cells divided by IC50 in P. falciparum” value in series [4] worked out at 1.1. The “IC50 L6 cells (cytotoxicity)” value in series [7] was “significant cytotoxicity”. Also, the IC50 at 96 h in series [6] came to 42.7 ± 12.1 µM.

Take `COc1cc(C(=O)O)ccc1O` [Compound 7, 3-Methoxy-4-hydroxybenzoic acid]: the IC50 in series [1] (setting [8]) was 153 ± 45.5 µM; in series [2] (setting [9]) it was greater than 595 µM; in series [3], 38.6 ± 5.9 µM; in series [4] (setting [10]), 138 ± 12.2 µM. The “IC50 P. falciparum” value in series [4] (NF54 drug sensitive strain, erythrocytic stages, 72 h, mean ± absolute deviation) is recorded as “least active”. The IC50 at 70 h in series [5] was 595 µM. In series [6], this compound registered an IC50 at 96 h greater than 500 µM.

`COc1ccc(C[C@@H]2c3cc(OC)c(OC)cc3CCN2C)cc1O` [Compound 8, Laudanine]: the IC50 was greater than 150 µM in series [1] (pH 5.4, read-out: IC50 L. donovani Axenic, axenic amastigotes, MHOM/ET/67/L82, pH 5.4, 70 h + 2 h resazurin); greater than 292 µM in series [2]; greater than 80 µM in series [3]; 78.6 ± 0.4 µM in series [4] (setting [11]). Besides, the IC50 at 70 h in series [5] amounted to 292 µM. The compound also had an IC50 at 96 h in series [6] greater than 200 µM.

For `COc1ccc(CC2c3cc(OC)c(OC)cc3CCN2C)cc1OC` (centres unmarked) [Compound 9, Laudanosine], the IC50 in series [1] (setting [8]) was greater than 150 µM; in series [2] (setting [9]), greater than 186 µM; in series [3], greater than 80 µM; in series [4] (setting [11]), 76.1 ± 21.6 µM. Besides, in series [5], the IC50 at 70 h came to 280 µM. In series [6], the IC50 at 96 h was greater than 245 µM.

`COc1cc(-c2oc3cc(O)cc(O)c3c(=O)c2O)ccc1O` [Compound 11, Isorhamnetin]: the “Selectivity index (SI): IC50 in L6 cells divided by IC50 in L. donovani axenic amastigotes” value in series [1] was determined as 6.0. The IC50 is 21.7 ± 7.9 µM in series [1] (setting [8]); greater than 210 µM in series [2] (setting [9]); 25.9 ± 5.4 µM in series [3]; roughly 20 µM in series [4] (setting [11]); 21.6 ± 0.7 µM in series [4] (read-out: IC50 P. falciparum, NF54 drug sensitive strain, erythrocytic stages, 72 h, mean ± absolute deviation). In addition, the “Selectivity index (SI): IC50 in L6 cells divided by IC50 in T. b. rhodesiense” value in series [3] is 5.0. Besides, the “Selectivity index (SI): IC50 in L6 cells divided by IC50 in P. falciparum” value in series [4] is 6.0. Further, the IC50 at 70 h in series [5] amounted to 130 ± 58.7 µM. In series [6], the IC50 at 96 h is greater than 199 µM.
